Assay results taken from patent EP0171342A1, “Substituted 2-(1-amino-akylidenyl)1,3-indane diones, process for their preparation and their therapeutical use” (priority 1984, dated 1986).
≈ marks a conversion by molar mass, not a printed value. Where two headings read alike, the source gives them in different places.

Assays:
souris = test: Acute toxicity (mortality, LD50) in mice; assay type: in vivo; conditions: mouse
[1] = test system: oedème induit par l'injection intraplantaire de carragénine chez le rat; test: Anti-inflammatory activity: carrageenan paw oedema in rats; assay type: in vivo; conditions: oral 1 h before carrageenan, measured 3 h after
Method: L'activité antiinflammatoire a été déterminée chez le rat par la mesure de l'inhibition de l'oedème induit par l'injection intraplantaire de 0,1 ml d'une suspension à 1% de carragénine chez le rat. Les produits à tester sont administrés par voie orale lh avant l'injection de carragénine et la mesure est réalisée 3h après cette injection. Les COR3789, COR3792, COR4003, COR4008 et COR4010 administrés à 10b mg/kg entrainent respectivement 43, 42, 41, 38 et 39% d'inhibition. Administré à 200 mg/kg, le COR3773 entraine 53% d'inhibition. L'aspirine administrée dans les mêmes conditions à 150 mg/kg entraine 40% d'inhibition de l'oedème.

[2] = test system: poumon de cobaye isolé perfusé; test: Bronchodilator activity: isolated perfused guinea pig lung contracted by methacholine; conditions: flow of Tyrode solution, lung contracted by 0,05 microg/ml methacholine; read-out: concentration qui augmente ce débit de 50%
Text: L'activité bronchodilatatrice a été déterminée in vitro par la mesure du débit d'une solution de Tyrode à travers un poumon de cobaye isolé perfusé, contracté par l'addition au fluide de perfusion de 0,05 microg/ml de méthacholine. Les COR3760, COR3789, COR3792, COR4003, COR4008, COR4010 et COR4014 utilisés respectivement aux concentrations de 50, 50, 100, 10, 50, 50 et 10 microg/ml augmentent ce débit de 50%. L'aminophylline entraine cette même activité à la concentration de 100 microg/ml.

[3] = test system: segments d'iléon de cobaye isolés; test: Anticholinergic activity: acetylcholine-induced contractions of isolated guinea pig ileum; conditions: Cavia porcellus; contractions induced by 0,1 microg/ml acetylcholine; read-out: concentration qui inhibe ces contractions de 80%
Text: L'activité anticholinergique a été appréciée par la mesure des contractions induites par 0,1 microg/ml d'acétylcholine sur des segments d'iléon de cobaye isolés. Les COR3760, COR3789, COR3792, COR4003, COR4008, COR4010, COR4014 utilisés respectivement aux concentrations de 50, 25, 25, 50, 25, 10, 25 microg/ml inhibent ces contractions de 80%.

[4] = test system: rat Wistar soumis à une surcharge saline; test: Diuretic activity in selected Wistar rats given a saline overload (modified Wiebelhaus test); assay type: in vivo
Method: L'activité diurétique des produits selon l'invention a été également déterminée chez le rat Wistar soumis à une surcharge saline selon une modification du test décrit par Wiebelhaus et coll., Fed. Proc., 1960, 19, 364, en procédant à une sélection des animaux. A la dose de 20 mg/kg, les COR4003, COR4008, COR4009, COR4010, COR4011, COR4012, COR4014, COR4016, COR4021, COR4025 augmentent l'excrétion urinaire volumétrique mesurée au bout de 6 heures de respectivement 56, 54, 65, 95, 73, 54, 33, 40, 99 et 92 %. L'excrétion urinaire du sodium augmente de respectivement 56, 24, 42, 59, 43, 33, 29, 43, 31, 83, 26, 99, 40 % toujours à cette dose pour les COR4003, COR4008, COR4009, COR4010, COR4011, COR4012, COR4014, COR4016, COR4017, COR4021, COR4023, COR4025 et COR4026. Le rapport Na/K demeure la plupart du temps inchangé. Testé dans les mêmes conditions le furosémide, administré à la dose de 20 mg/kg entraine 63% d'augmentation de l'excrétion urinaire volumétrique et 53% d'augmentation de l'excrétion urinaire du sodium.

[5] = test system: rat soumis à une surcharge hydrique; test: Diuretic activity in rats given a water overload, oral; assay type: in vivo; conditions: read-out: facteur multipliant l'excrétion urinaire du sodium
Method: L'activité diurétique a été déterminée sur plusieurs modèles expérimentaux. Chez le rat soumis à une surcharge hydrique, administrés par voie orale à la dose de 20 mg/kg, le COR3760, le COR3789, le COR3792, le COR4002, le COR4003, le COR4009, le COR4010, le COR4012 et le COR4014 multiplient l'excrétion urinaire du sodium par respectivement un facteur 2,9 - 3,1 - 5,9 - 2,6 - 7,2 - 3,5 - 3,8 - 2,9 - 2,4. Administrés à la dose de 10 mg/kg, dans les mêmes conditions, les COR3760, COR3789, COR3792, COR4003 et COR4010 multiplient l'excrétion sodique par respectivement 2,3 - 2,9 - 2,8 - 2,4 et 2,5. La spironolactone multiplie quant à elle l'excrétion sodique d'un facteur 3,6 à la dose de 20 mg/kg. Administré à la dose de 5 mg/kg dans les mêmes conditions, le COR3792 multiplie l'excrétion sodique par 3,3. Administré par voie orale chez le rat ou la souris soumis à une surcharge saline, le COR3760 augmente l'excrétion urinaire volumétrique mesurée à la sixième heure de respectivement 49, 119 et 134% chez la souris et 28, 84 et 116% chez le rat après administration de 10, 20, et 40 mg/kg. Le COR3760 a été administré par voie orale au rat soumis à une surcharge hydrique et l'excrétion urinaire volumétrique, le sodium et le potassium excrétés ont été mesurés sur une période de 6 heures; ces paramètres ont varié de respectivement +17%, +102%, +165% à 10 mg/kg, +19%, +147%, +180% à 20 mg/kg et +36%, +415% et +239% à 40 mg/kg; le rapport Na/K passe de 0,56 chez les animaux témoins à 0,4 à 10 mg/kg, 0,49 à 20 mg/kg et 0, 8 à 40 mg/ kg. Au cours d'une seconde expérimentation, le COR3760 a entrainé des variations de +19%, +157%, +70% à 40 mg/kg, +19%, +319%, +90% à 60 mg/kg et +29%, +472% et +77% à 80 mg/kg; le rapport Na/K passe de 0,59 chez les animaux témoins à 0,88 à 40, 1,15 à 60 et 1,88 à 80 mg/kg.

[6] = Acute toxicity (mortality, LD50) in mice; assay type: in vivo; conditions: in vivo, mouse, read-out: mortalité
[7] = 6 h, read-out: augmentation de l'excrétion urinaire volumétrique mesurée au bout de 6 heures
[8] = read-out: augmentation de l'excrétion urinaire du sodium
[9] = rat, water overload, oral, 20 mg/kg

| SMILES | mortalité (souris; intraperitoneal, 200 mg/kg) | mortalité (souris; oral, 300 mg/kg) | change in vivo at 20 mg/kg [4, 7] [%] | change in vivo at 20 mg/kg [4, 8] [%] | further results |
| --- | --- | --- | --- | --- | --- |
| CC(NCC(C)C)=C1C(=O)c2ccccc2C1=O [COR4008, (Isobutylamino-1 éthylidényl)-2 indanedione-1,3] | aucune mortalité | aucune mortalité | 54 | 24 | inhibition de l'oedème ([1]; dose 10b mg/kg [sic]): 38%; EC50 [2]: 50 µg/mL (≈ 206 µM); IC80 [3]: 25 µg/mL (≈ 103 µM) |
| CCNC(C)=C1C(=O)c2ccc(Cl)cc2C1=O [COR3774, Chloro-5 (éthylamino-1 éthylidène)-2 indanedione-1,3] | aucune mortalité | aucune mortalité | – | – | – |
| CC(NC1CCCC1)=C1C(=O)c2ccccc2C1=O [COR4012, (Cyclopentylamino-1 éthylidényl)-2 indanedione-1,3] | aucune mortalité | aucune mortalité | 54 | 33 | response vs control in vivo at 20 mg/kg [5, 9]: 290% |
| CC(=O)NS(=O)(=O)c1cc2c(cc1Cl)C(=O)C(=C(C)NC(C)C)C2=O [COR4015, N-acétylsulfonamido-6 chloro-5 (isopropylamino-1 éthylidényl)-2 indanedione-1,3] | aucune mortalité | aucune mortalité | – | – | – |
| CCC(NC(C)C)=C1C(=O)c2ccccc2C1=O [COR4025, (Isopropylamino-1 propylidényl)-2 indanedione-1,3] | – | – | 92 | 99 | – |
| CCNC(C)=C1C(=O)c2cc(Cl)c(Cl)cc2C1=O [COR4007, Dichloro-5,6 (éthylamino-1 éthylidényl)-2 indanedione-1,3] | aucune mortalité | aucune mortalité | – | – | – |
| CCCC(NC)=C1C(=O)c2ccccc2C1=O [COR4017, (Méthylamino-1 butylidényl)-2 indanedione-1,3] | – | – | – | 31 | – |
| NS(=O)(=O)c1cc(C(=O)O)c(NCc2ccco2)cc1Cl [furosémide, reference compound] | – | – | 63 | 53 | – |
| CNC(C)=C1C(=O)c2cc(Cl)c(Cl)cc2C1=O [COR4006, Dichloro-5,6 (méthylamino-1 éthylidényl)-2 indanedione-1,3] | aucune mortalité | aucune mortalité | – | – | – |
| CC(=C1C(=O)c2ccccc2C1=O)N(C)C [COR3788, (Diméthylamino-1 éthylidène)-2 indanedione-1,3] | – | – | – | – | mortalité (souris; intraperitoneal, 100 mg/kg): aucune mortalité; mortality ([6]; ip, intraperitoneal, 200 mg/kg): 100%; mortality ([6]; oral, 300 mg/kg): 100% |
| CC(=O)S[C@@H]1CC2=CC(=O)CC[C@]2(C)[C@H]2CC[C@@]3(C)[C@@H](CC[C@@]34CCC(=O)O4)[C@H]12 [spironolactone, reference compound] | – | – | – | – | response vs control in vivo at 20 mg/kg ([5]; Rattus norvegicus, po): 360% |
| CNC(=C1C(=O)c2ccccc2C1=O)c1ccccc1 [COR4004, (Alpha-méthylamino benzylidényl)-2 indanedione-1,3] | aucune mortalité | aucune mortalité | – | – | – |
| CC(NC(C)C)=C1C(=O)c2cc(Cl)c(Cl)cc2C1=O [COR4016, Dichloro-5,6 (isopropylamino-1 éthylidényl)-2 indanedione-1,3] | aucune mortalité | aucune mortalité | 40 | 43 | – |
| CC(NC(C)(C)C)=C1C(=O)c2ccccc2C1=O [COR4001, (Tertiobutylamino-1 éthylidényl)-2 indanedione-1,3] | – | – | – | – | mortalité (souris; intraperitoneal, 100 mg/kg): aucune mortalité; mortalité (souris; oral, 100 mg/kg): aucune mortalité; mortality ([6]; ip, intraperitoneal, 200 mg/kg): 100%; mortality ([6]; oral, 300 mg/kg): 100% |
| Cn1c(=O)c2[nH]cnc2n(C)c1=O [aminophylline, reference compound] | – | – | – | – | EC50 [2]: 100 µg/mL (≈ 555 µM) |
| CC(C)NC(=C1C(=O)c2ccccc2C1=O)C(C)C [COR4023, (Isopropylamino-1 isobutylidényl)-2 indanedione-1,3] | – | – | – | 26 | – |
| CNC(C)=C1C(=O)c2ccc([N+](=O)[O-])cc2C1=O [COR4002, Nitro-5 (méthylamino-1 éthylidényl)-2 indanedione-1,3] | – | – | – | – | mortalité (souris; intraperitoneal, 100 mg/kg): aucune mortalité; mortalité (souris; oral, 100 mg/kg): aucune mortalité; mortality ([6]; ip, intraperitoneal, 200 mg/kg): 100%; mortality ([6]; oral, 300 mg/kg): 100%; response vs control in vivo at 20 mg/kg [5, 9]: 260% |
| CC(NC1CCCCC1)=C1C(=O)c2ccccc2C1=O [COR4013, (Cyclohexylamino-1 éthylidényl)-2 indanedione-1,3] | aucune mortalité | aucune mortalité | – | – | – |
| CC(N)=C1C(=O)c2ccccc2C1=O [COR4026, (Amino-1 éthylidényl)-2 indanedione-1,3] | – | – | – | 40 | – |
| CC(=O)Oc1ccccc1C(=O)O [aspirine, reference compound] | – | – | – | – | inhibition de l'oedème ([1]; 150 mg/kg): 40% |
| CC(NC1CC1)=C1C(=O)c2ccccc2C1=O [COR4014, (Cyclopropylamino-1 éthylidényl)-2 indanedione-1,3] | aucune mortalité | aucune mortalité | 33 | 29 | EC50 [2]: 10 µg/mL (≈ 44 µM); IC80 [3]: 25 µg/mL (≈ 110 µM); response vs control in vivo at 20 mg/kg [5, 9]: 240% |
| CCNC(CC)=C1C(=O)c2ccccc2C1=O [COR4021, (Ethylamino-1 propylidényl)-2 indanedione-1,3] | – | – | 99 | 83 | – |
